Non-standard residues stand in square brackets, D forms with d. Residues, ends and D or L forms follow the SMILES beside them. Nspe = C[C@H](NCC(=O)O)c1ccccc1; Nlys = NCCCCNCC(=O)O
How the values were obtained:
red blood cells = assay: Hemolytic activity on red blood cells; format: cell-based, mouse
Summary of the method: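 Washed mouse red blood cells (10% v/v in PBS, pH 7.4) incubated with peptoids for 1 h at 37 °C; released haemoglobin read at 540 nm. % hemolysis normalised to 0.1% Triton X-100 (100%) and PBS blank; HD10, HD50 derived, Hmax taken at 200 μM top concentration.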

E. coli (63103 ESBL) = assay: MIC in multidrug-resistant bacteria panel, modified microdilution; format: cell-based; conditions: overnight, 37° C.
Protocol: (§1) Minimum inhibitory concentrations of the prepared peptoids for multidrug-resistant bacteria were measured using a modified microdilution method in Difco Mueller Hinton medium, and tests were done on a panel of bacterial pathogens which have resistance and tolerance against common antibiotics.
(§2) Briefly, a peptoid concentrate, which is 10-fold more concentrated than a final concentration, was serially diluted with a medium containing 0.2% bovine serum albumin and 0.01% acetic acid. 10 μL of the 10-fold concentrated peptoid concentrate and 90 μL of Muller Hinton medium were added to each well of a 96-well polypropylene microtitre plate. Bacteria were added to the plate so that a final concentration thereof was 2×10^5 CFU/mL, and then incubated overnight at a temperature of 37° C. The minimum inhibitory concentration was defined as a concentration at which no bacterial growth is observed.

S. aureus (ATCC25923) = assay: as above; format: cell-based; conditions: overnight, 37° C.
Protocol: as §1, §2

[1] = system: S. epidermidis (ET-024 MRSA); assay: as above; format: cell-based; conditions: overnight, 37° C.
Protocol: as §1, §2

Question: How did the “Hmax (%)” value (red blood cells; Table 6, hemolysis rate at 200 μM) turn out when `C[C@@H](c1ccccc1)N(CC(N)=O)C(=O)CN(C(=O)CN(CCCCN)C(=O)CN(C(=O)CN(C(=O)CN(CCCCN)C(=O)CN(C(=O)CN(C(=O)CN(CCCCN)C(=O)CN(C(=O)CN(C(=O)CNCCCCN)[C@@H](C)c1ccccc1)[C@@H](C)c1ccccc1)[C@@H](C)c1ccccc1)[C@@H](C)c1ccccc1)[C@@H](C)c1ccccc1)[C@@H](C)c1ccccc1)[C@@H](C)c1ccccc1` [compound 1] (H-[Nlys][Nspe][Nspe][Nlys][Nspe][Nspe][Nlys][Nspe][Nspe][Nlys][Nspe][Nspe]-NH2) was run?
Answer: The value was 113.4 ± 2.0%.

Question: What about the HD10 (red blood cells; Table 6, peptoid concentration causing 10% hemolysis, highest concentration 200 μM, in µM (unit assumed)) of the same compound?
Answer: Its HD10 is 1.2.

Question: And the HD50 (red blood cells; Table 6, peptoid concentration causing 50% hemolysis, highest concentration 200 μM, in µM (unit assumed))?
Answer: Its HD50 is 42.8.

Question: What about the “Hmax (%)” value (red blood cells; Table 13, hemolysis rate at highest concentration 200 μM) of the same compound?
Answer: The value was 100%.

Question: And the “minimum inhibitory concentration E. coli (63103 ESBL)” value (E. coli (63103 ESBL))?
Answer: Its value is 1.6.

Question: And the “minimum inhibitory concentration S. aureus (ATCC25923)” value (S. aureus (ATCC25923))?
Answer: The value was 1.6.

Question: What about the “minimum inhibitory concentration S. epidermidis (ET-024 MRSA)” value [1] of the same compound?
Answer: Its value is less than 0.8 to 0.8.
